Measurements as given in patent US6160166A, “Phosphonated agents and their antiangiogenic and antitumorigenic use” (priority 1999, dated 2000).

What was measured:
[1] = cited from earlier work
[2] = tested on: chick chorioallantoic membrane (CAM); test: Chick egg chorioallantoic membrane (CAM) assay, 6-day, growing vessels: inhibition of angiogenesis; type: in vivo; details: for antiangiogenic activity relative to suramin: CAM assay / inhibition of angiogenesis, versus suramin; for inhibition of angiogenesis in the 6-day CAM, in words: rapidly growing vessels; for inhibition in vivo at 70 nmol: Gallus gallus, Tables 1 and 2, dose not given, Em = number of embryos, read-out: % Ih (Inhibition)
From the text: The purpose of this experiment was to test the ability of the phosphonic acid agents described above to inhibit angiogenesis. […]
(§1) Comparison of the inhibition of angiogenesis by 70 nmol of
(§2) suramin or a equimolar amount of a phosphonic acid agents in the
(§3) 6-day and 11-day chick egg chorioallantoic (CAM) assay.

MMP-2 = MMP-2 activity by zymography, human microvascular endothelial cells; type: cell-based; details: for inhibition of MMP-2 activity: human microvascular endothelial cells, zymography; for inhibition of bFGF-induced increase in MMP-2 activity: with bFGF
From the text: Matrix metalloproteinases are an important group of zinc enzymes responsible for the degradation of the extracellular matrix components, such as collagen and proteoglycans. Currently, 16 family members have been identified. MMP family member differ from each other structurally by the presence or absence of domains that contribute to activities such as substrate specificity, inhibitor binding, matrix binding and cell surface localization (Powell and Matrisian, 1996). To determine if the phosphonic acid agents were effective inhibitors of the MMP's of endothelial cells, cells were incubated in the presence of the different agents for 48 hours. Tissue samples were taken and subjected to zymography. Tissue samples were placed in glass homogenizers in a three fold weight/volume of lysis buffer consisting of 50 mM Tris-HCL, pH=7.4, with 200 mM sodium chloride and 0.1% Triton X-100. The samples were homogenized and centrifuged at 1500 g for 20 min. The supernatant was immediately analyzed by zymography. Protein content of each sample was determined by a modified Lowry method.
MMP enzyme activity was detected using polyacrylamide gel eltrophoresis zymography. SDS-polyacrylamide gel electrophoresis (PAGE) was performed using 8% acrylamide gels containing 0.1% gelatin. The volume of test samples loaded was 15 μl. Electrophoresis was run at 4° C. at a constant voltage (100 volts). After electrophoresis, gels were incubated in Triton X-100 (2.5%) for 30 minutes to eliminate SDS, prior to being incubated overnight in 50 mM Tris HCL, pH7.5, containing 10 mM CaCl2 at 37° C. The gels were stained in 0.25% (W/v) Coomassie Brilliant Blue and destained in methanol:acetic acid:water (50:40:10). The clear zones in these gels indicates the presence of proteins with gelatinolytic activity. This method allows for identification of pro-metalloproteinases.Migration position of proteins and with standard molecular weight and supernatant from HT 1080 cells that express MMP-2 and MMP-9 were used as controls.

[3] = tested on: human dermal microvascular and porcine pulmonary artery endothelial cells; test: bFGF-stimulated and non-stimulated endothelial cell growth (total protein, total DNA); type: cell-based; details: 25 μM
From the text: Suramin is a highly charged molecule with six sulfonate groups that are ionized at physiologic pH.

[4] = tested on: human dermal Microvascular endothelial cells; test: Inhibition of bFGF-stimulated growth of human microvascular endothelial cells; type: cell-based; details: for IC50: Homo sapiens, Endothelial cell, bFGF-stimulated, estimated from dose response curve
Description: Inhibition of cell growth was evaluated by measuring total protein and total DNA and the IC50 was estimated for each dose response curve.

[5] = tested on: chick chorioallantoic membrane (CAM); test: Chick egg chorioallantoic membrane (CAM) assay, 11-day, established vessels; type: in vivo; details: for 11-day CAM % Inhibition: 70 nmol or equimolar amount; for inhibitory activity in the 11-day CAM, in words: established vessels
Description: According to Ausprunk et al. (1974), capillary angiogenesis in the CAM is completed by day 11. Measurements of intercapillary distances are also consistent with the cessation of capillary growth after day 10. […] The implants were prepared as previously described by Gagliardi et al. (1992), implanted on day 11 and read on day 13.
as §1, §2, §3

[6] = tested on: different cancer cell lines; test: MTT cell proliferation, different cancer cell lines; type: cell-based, human; details: cancer cell lines in vitro

| SMILES | antiangiogenic activity relative to suramin [2] | effect on bFGF stimulation of endothelial cell growth [3] | effect on total protein content versus unstimulated control [3] | inhibition in vivo at 70 nmol [2] [%] | other results |
| --- | --- | --- | --- | --- | --- |
| CN1CCCC1=O [N-methyl-2-pyrrolidone] | – | – | – | – | toxicity in Ames type assays and chronic exposure studies ([1]; Wells et al.): have not revealed any significant toxicity; irritation or sensitization potential ([1]; animal and human experiments): very little irritation or sensitization potential |
| O=C(Nc1cccc(C(=O)Nc2cccc(C(=O)Nc3cccc(P(=O)(O)O)c3)c2)c1)Nc1cccc(C(=O)Nc2cccc(C(=O)Nc3cccc(P(=O)(O)O)c3)c2)c1 [NF 050] | 2 to 4 times | inhibited the stimulation of endothelial cell growth by bFGF | significantly reduced total protein content far below the unstimulated control endothelial cells | – | inhibition of MMP-2 activity (MMP-2): potent inhibitors of MMP-2 activity; inhibition of bFGF-induced increase in MMP-2 activity (MMP-2): inhibited the increase in MMP-2 activity induced by bFGF |
| O=C(Nc1cccc(C(=O)Nc2ccc(P(=O)(O)O)cc2)c1)Nc1cccc(C(=O)Nc2ccc(P(=O)(O)O)cc2)c1 [NF 067] | 2 to 4 times | inhibited the stimulation of endothelial cell growth by bFGF | significantly reduced total protein content far below the unstimulated control endothelial cells | 62 | IC50 [4]: 19.4 µM; potency relative to suramin, inhibition of endothelial cell growth ([4]; versus suramin, in vitro): 20 times; inhibition of angiogenesis in the 6-day CAM, in words [2]: very potent inhibitors of angiogenesis; ID50, dose that produces 50% inhibition of angiogenesis ([2]; CAM assay): 32 nmol; 11-day CAM % Inhibition [5]: 0%; inhibitory activity in the 11-day CAM, in words [5]: no significant inhibitory activity; antiproliferative activity, in words [6]: very low antiproliferative activity |
| O=C(Nc1cccc(C(=O)Nc2cccc(P(=O)(O)O)c2)c1)Nc1cccc(C(=O)Nc2cccc(P(=O)(O)O)c2)c1 [NF 068] | – | – | – | 0 | antiangiogenic activity relative to suramin or between groups, in words ([2]; CAM assay): does not show any antiangiogenic activity |
| O=C(Nc1ccc(C(=O)Nc2cccc(P(=O)(O)O)c2)cc1)Nc1ccc(C(=O)Nc2cccc(P(=O)(O)O)c2)cc1 [NF 069] | 4-8 times | inhibited the stimulation of endothelial cell growth by bFGF | significantly reduced total protein content far below the unstimulated control endothelial cells | 66 | IC50 [4]: 75 µM; inhibition of angiogenesis in the 6-day CAM, in words [2]: very potent inhibitors of angiogenesis; ID50, dose that produces 50% inhibition of angiogenesis ([2]; CAM assay): 9 nmol; 11-day CAM % Inhibition [5]: 0%; inhibitory activity in the 11-day CAM, in words [5]: no significant inhibitory activity |
| O=C(Nc1cccc(P(=O)(O)O)c1)Nc1cccc(P(=O)(O)O)c1 [NF 158] | – | – | – | 0 | – |
| O=C(Nc1ccc(P(=O)(O)O)cc1)Nc1ccc(P(=O)(O)O)cc1 [NF 161] | 2 to 4 times | inhibited the stimulation of endothelial cell growth by bFGF | significantly reduced total protein content far below the unstimulated control endothelial cells | 53 | – |
| O=C(Nc1ccc(P(=O)(O)O)cc1)c1ccc(NC(=S)Nc2ccc(C(=O)Nc3ccc(P(=O)(O)O)cc3)cc2)cc1 [NF 162] | – | – | – | – | inhibition of MMP-2 activity (MMP-2): potent inhibitors of MMP-2 activity; inhibition of bFGF-induced increase in MMP-2 activity (MMP-2): inhibited the increase in MMP-2 activity induced by bFGF |
| O=C(Nc1ccc(P(=O)(O)O)cc1)c1cc(NC(=O)c2cccc([N+](=O)[O-])c2)cc(C(=O)Nc2ccc(P(=O)(O)O)cc2)c1 [NF 167] | 2 to 4 times | inhibited the stimulation of endothelial cell growth by bFGF | significantly reduced total protein content far below the unstimulated control endothelial cells | – | – |
| O=C(Nc1ccc(OC(=O)P(=O)(O)O)cc1)Nc1ccc(OC(=O)P(=O)(O)O)cc1 [NF 392] | – | – | – | 6 | – |
| O=C(Nc1cccc(OC(=O)P(=O)(O)O)c1)Nc1cccc(OC(=O)P(=O)(O)O)c1 [NF 426] | – | – | – | 39 | – |
| O=C(Nc1ccc(NC(=O)P(=O)(O)O)cc1)Nc1ccc(NC(=O)P(=O)(O)O)cc1 [NF 428] | 2 to 4 times | inhibited the stimulation of endothelial cell growth by bFGF | significantly reduced total protein content far below the unstimulated control endothelial cells | – | – |
| O=C(Nc1ccccc1OC(=O)P(=O)(O)O)Nc1ccccc1OC(=O)P(=O)(O)O [NF 473] | – | – | – | 21 | – |
| Cc1cc(NC(=O)Nc2ccc(OC(=O)P(=O)(O)O)c(C)c2)ccc1OC(=O)P(=O)(O)O [NF 474] | – | – | – | 12 | – |
| O=C(Nc1ccc(C(=O)Nc2ccc(P(=O)(O)O)cc2)cc1)Nc1ccc(C(=O)Nc2ccc(P(=O)(O)O)cc2)cc1 [NF 681] | 4-8 times | inhibited the stimulation of endothelial cell growth by bFGF | significantly reduced total protein content far below the unstimulated control endothelial cells | 100 | IC50 [4]: 1.5 µM; inhibition of angiogenesis in the 6-day CAM, in words [2]: very potent inhibitors of angiogenesis; ID50, dose that produces 50% inhibition of angiogenesis ([2]; CAM assay): 2 nmol; 11-day CAM % Inhibition [5]: 0%; inhibitory activity in the 11-day CAM, in words [5]: no significant inhibitory activity; inhibition of MMP-2 activity (MMP-2): potent inhibitors of MMP-2 activity; inhibition of bFGF-induced increase in MMP-2 activity (MMP-2): inhibited the increase in MMP-2 activity induced by bFGF |
